Where a name gives a salt, the structure may show the parent alone.
Tests used:
[1] = target: IRAK4 (Homo sapiens (Human), UniProt Q9NWZ3); experiment: IRAK-4 biochemical assay, AlphaScreen format (phosphorylation of a biotin labeled peptide); settings: 1 nM IRAK4, 1.6 μM peptide, 1 mM ATP, 3.5 h at RT
Protocol: Biochemical Assay: The biochemical assay is in a AlphaScreen format. The kinase reaction is based on the IRAK-4 phosphorylation of a biotin labeled peptide. The phosphopeptide is incubated with anti-phosphothreonine antibody as well as streptavidin- and protein A-coated beads. Binding of the protein-A coated beads to the antibody and the streptavidin beads to the peptide, leads to an energy transfer from one bead to the other, ultimately producing a luminescent/fluorescent signal.
Generally, the kinase reaction is carried out at 1 nM IRAK4, 1.6 μM peptide, 1 mM ATP in reaction buffer 50 mM Hepes, 60 mM NaCl, 5 mM MgCl2, 0.25 mM MnCl2, 2 mM DTT, 0.01% BSA, 0.01% Tween-20) for 3.5 h at RT.
The compounds described herein were tested for in the above biochemical assay.

[2] = system: A549 cells; experiment: Cell-based assay: IL-6 ELISA quantification in A549 cells stimulated with human IL-1beta; settings: 2 ng/ml human IL-1beta overnight
Protocol: Cell-based Assay: The cell-based assays is based on IL-6 ELISA quantification. Briefly, A549 cells are cultured in DMEM with 10% FBS medium. When cells reach 80% confluence they are trypsin treated and seeded 180 ul/well in 96-well plate at 2.5×10^4 cells/well. Then, 20 ul of compound serial dilutions (starting at 10 uM, 10 points) are added to the cell plate; incubate for 30 min at 37 C and stimulated with 2 ng/ml human IL-1beta 37 C, 5% CO2 overnight. The next day 100 ul of cell supernatant per well are analyzed on a Human IL-6 Quantikine ELISA kit from R&D Systems.
The compounds described herein were tested for in the above biochemical and cell-based assays.

[3] = system: primary human microglia; settings: cited from earlier work
[4] = system: primary human astrocytes; settings: cited from earlier work
[5] = system: astrocytes and microglia; settings: cited from earlier work

Sequence of IRAK4 (Q9NWZ3 whole entry, species assumed): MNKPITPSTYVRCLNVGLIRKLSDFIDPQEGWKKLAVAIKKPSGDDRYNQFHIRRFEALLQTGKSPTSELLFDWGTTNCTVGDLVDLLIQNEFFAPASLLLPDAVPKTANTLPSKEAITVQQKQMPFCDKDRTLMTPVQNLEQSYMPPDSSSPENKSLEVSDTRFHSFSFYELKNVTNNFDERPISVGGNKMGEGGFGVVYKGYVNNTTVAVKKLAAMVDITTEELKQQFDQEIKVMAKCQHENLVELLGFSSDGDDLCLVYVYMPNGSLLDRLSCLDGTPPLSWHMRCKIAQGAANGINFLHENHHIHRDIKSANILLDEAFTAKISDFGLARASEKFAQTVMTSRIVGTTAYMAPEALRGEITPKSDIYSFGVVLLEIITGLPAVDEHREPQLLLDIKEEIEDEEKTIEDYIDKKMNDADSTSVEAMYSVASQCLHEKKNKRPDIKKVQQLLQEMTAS

SMILES | IC50 [1] [µM] | EC50 ([2]; Homo sapiens, A549, A549 cells) [µM] | other results
CCc1ccnc(-n2ncc3ccc(-c4cccc([C@@H](N)[C@H]5C[C@@H](O)C5)n4)cc32)n1 [Compound 11, (1R,3S)-3-((S)-amino(6-(1-(4-ethylpyrimidin-2-yl)-1H-indazol-6-yl)pyridin-2-yl)methyl)cyclobutanol] | 0.1 to 1 | ≤ 1 | –
COc1cccc(-n2ncc3ccc(-c4cccc([C@@H](N)C5CC(O)C5)n4)cc32)n1 (stereo partly drawn) [Compound 35e, (S)-3-(amino(6-(1-(6-methoxypyridin-2-yl)-1H-indazol-6-yl)pyridin-2-yl)methyl)cyclobutan-1-ol] | 0.1 to 1 | 1 to 10 | –
N[C@H](c1cccc(-c2ccc3cnn(-c4cccc(C(F)F)n4)c3c2)n1)C1CC(F)(F)C1 [Compound 30, (S)-(3,3-difluorocyclobutyl)(6-(1-(6-(difluoromethyl)pyridin-2-yl)-1H-indazol-6-yl)pyridin-2-yl) methanamine] | ≤ 0.1 | ≤ 1 | –
N[C@@H](c1cccc(-c2ccc3cnn(-c4cccc(CO)n4)c3c2)n1)C1CC(F)(F)C1 [Compound 27, (R)-(6-(6-(6-(amino(3,3-difluorocyclobutyl)methyl)pyridin-2-yl)-1H-indazol-1-yl)pyridin-2-yl)methanol] | ≤ 0.1 | ≤ 1 | –
N[C@@H](c1cccc(-c2ccc3cnn(-c4cccc(CO)n4)c3c2)n1)[C@H]1C[C@@H](O)C1 [Compound 5, (cis)-3-((R)-amino(6-(1-(6-(hydroxymethyl)pyridin-2-yl)-1H-indazol-6-yl)pyridin-2-yl)methyl)cyclobutan-1-ol hydrochloride] | ≤ 0.1 | ≤ 1 | –
O=C(Nc1nc2ccccc2n1CCN1CCOCC1)c1cccc([N+](=O)[O-])c1 [IRAK-1/4 inhibitor I] | – | – | lipopolysaccharide-induced secretion of monocyte chemotactic protein-1 (MCP-1) [3]: reduced; interleukin-1β-induced secretion of MCP-1 [4]: reduced; interleukin-1β-induced secretion of interleukin 6 [4]: reduced; in vitro uptake of amyloid β (Aβ) [5]: not affected
CC1(O)CC([C@H](N)c2cccc(-c3ccc4cnn(-c5cccc(CF)n5)c4c3)n2)C1 (stereo partly drawn) [Compound 35f, 3-((S)-amino(6-(1-(6-(fluoromethyl)pyridin-2-yl)-1H-indazol-6-yl)pyridin-2-yl)methyl)-1-methylcyclobutan-1-ol] | ≤ 0.1 | 1 to 10 | –
N[C@H](c1cccc(-c2ccc3cnn(-c4cccc(CF)n4)c3c2)n1)[C@H]1C[C@@H](O)C1 [Compound 16, (1R,3s)-3-((S)-amino(6-(1-(6-(fluoromethyl)pyridin-2-yl)-1H-indazol-6-yl)pyridin-2-yl)methyl)cyclobutanol] | ≤ 0.1 | ≤ 1 | –
NC(c1cccc(-c2ccc3cnn(-c4cccc(CO)n4)c3c2)n1)C1CCC(O)C1 (single isomer, unassigned) [Compound 21, 3-(amino(6-(1-(6-(hydroxymethyl)pyridin-2-yl)-1H-indazol-6-yl)pyridin-2-yl)methyl)cyclopentanol-A] | ≤ 0.1 | ≤ 1 | –
N[C@H](c1cccc(-c2ccc3cnn(-c4nccc(C(F)(F)F)n4)c3c2)n1)[C@H]1C[C@@H](O)C1 [Compound 13, (1R,3s)-3-((S)-amino(6-(1-(4-(trifluoromethyl)pyrimidin-2-yl)-1H-indazol-6-yl)pyridin-2-yl)methyl)cyclobutanol] | ≤ 0.1 | ≤ 1 | –
N[C@H](c1cccc(-c2cc(OCC(F)F)c3cnn(-c4cccc(CO)n4)c3c2)n1)[C@H]1C[C@@H](O)C1 [Compound 24, (1R,3s)-3-((S)-amino(6-(4-(2,2-difluoroethoxy)-1-(6-(hydroxymethyl)pyridin-2-yl)-1H-indazol-6-yl)pyridin-2-yl)methyl)cyclobutanol] | ≤ 0.1 | ≤ 1 | –

Further lines, with some results ahead:

IC50 [1] [µM] | EC50 ([2]; Homo sapiens, A549, A549 cells) [µM] | SMILES | other results
≤ 0.1 | ≤ 1 | COC1CC([C@H](N)c2cccc(-c3ccc4cnn(-c5cccc(C(F)F)n5)c4c3)n2)C1 (stereo partly drawn) [Compound 35h, (S)-(6-(1-(6-(difluoromethyl)pyridin-2-yl)-1H-indazol-6-yl)pyridin-2-yl)(3-methoxycyclobutyl)methanamine] | –
≤ 0.1 | 1 to 10 | CC(O)c1ccnc(-n2ncc3ccc(-c4cccc([C@@H](N)[C@H]5C[C@@H](O)C5)n4)cc32)n1 (stereo partly drawn) [Compound 25, (1R,3s)-3-((1S)-amino(6-(1-(4-(1-hydroxyethyl)pyrimidin-2-yl)-1H-indazol-6-yl)pyridin-2-yl)methyl)cyclobutanol] | –
≤ 0.1 | 1 to 10 | CCc1cccc(-n2ncc3ccc(-c4cccc([C@@H](N)C5CC(O)C5)n4)cc32)n1 (stereo partly drawn) [Compound 35b, 3-((S)-amino(6-(1-(6-ethylpyridin-2-yl)-1H-indazol-6-yl)pyridin-2-yl)methyl)cyclobutan-1-ol] | –
≤ 0.1 | ≤ 1 | N[C@H](c1cccc(-c2ccc3cnn(-c4cccc(CO)n4)c3c2)n1)C1CC(CO)C1 (stereo partly drawn) [Compound 1, (S)-(6-(6-(6-(amino(3-(hydroxymethyl)cyclobutyl)methyl)pyridin-2-yl)-1H-indazol-1-yl)pyridin-2-yl)methanol] | –
≤ 0.1 | ≤ 1 | N[C@H](c1cccc(-c2ccc3cnn(-c4cccc(C(F)(F)F)n4)c3c2)n1)[C@H]1C[C@@H](O)C1 [Compound 10, (1R,3S)-3-((S)-amino(6-(1-(6-(trifluoromethyl)pyridin-2-yl)-1H-indazol-6-yl)pyridin-2-yl)methyl)cyclobutanol] | –
≤ 0.1 | ≤ 1 | N[C@H](c1cccc(-c2ccc3cnn(-c4nccc(CO)n4)c3c2)n1)[C@H]1C[C@@H](O)C1 [Compound 8, (1R,3S)-3-((S)-amino(6-(1-(4-(hydroxymethyl)pyrimidin-2-yl)-1H-indazol-6-yl)pyridin-2-yl)methyl)cyclobutanol] | –
≤ 0.1 | ≤ 1 | N[C@H](c1cccc(-c2ccc3cnn(-c4cncc(CO)n4)c3c2)n1)[C@H]1C[C@@H](O)C1 [Compound 9, cis 3-((S)-amino(6-(1-(6-(hydroxymethyl)pyrazin-2-yl)-1H-indazol-6-yl)pyridin-2-yl)methyl)cyclobutanol] | –
≤ 0.1 | ≤ 1 | CCOc1cc(-c2cccc([C@H](N)C3CC(F)(F)C3)n2)cc2c1cnn2-c1cccc(CO)n1 [Compound 33, (R)-(6-(6-(6-(amino(3,3-difluorocyclobutyl)methyl)pyridin-2-yl)-4-ethoxy-1H-indazol-1-yl)pyridin-2-yl)methanol] | –
≤ 0.1 | ≤ 1 | N[C@H](c1cccc(-c2ccc3cnn(-c4cccc(CF)n4)c3c2)n1)C1CC(F)(F)C1 [Compound 29, (S)-(3,3-difluorocyclobutyl)(6-(1-(6-(fluoromethyl)pyridin-2-yl)-1H-indazol-6-yl)pyridin-2-yl)methanamine] | –
≤ 0.1 | ≤ 1 | CCc1cncc(-n2ncc3ccc(-c4cccc([C@@H](N)[C@H]5C[C@@H](O)C5)n4)cc32)n1 [Compound 15, (1R,3s)-3-((S)-amino(6-(1-(6-ethylpyrazin-2-yl)-1H-indazol-6-yl)pyridin-2-yl)methyl)cyclobutanol] | –
≤ 0.1 | ≤ 1 | N[C@H](c1cccc(-c2ccc3cnn(-c4nccc(CO)n4)c3c2)n1)C1CC(F)(F)C1 [Compound 28, (S)-(2-(6-(6-(amino(3,3-difluorocyclobutyl)methyl)pyridin-2-yl)-1H-indazol-1-yl)pyrimidin-4-yl)methanol] | –
≤ 0.1 | – | NC(c1cccc(-c2ccc3cnn(-c4cccc(CO)n4)c3c2)n1)C1CCC(O)C1 (single isomer, unassigned) [Compound 22, 3-(amino(6-(1-(6-(hydroxymethyl)pyridin-2-yl)-1H-indazol-6-yl)pyridin-2-yl)methyl)cyclopentanol-B] | EC50 ([2]; A549 cells): 1 to 10 µM
≤ 0.1 | ≤ 1 | N[C@H](c1cccc(-c2ccc3cnn(-c4cccc(C(F)F)n4)c3c2)n1)C1CC(O)C1 (stereo partly drawn) [Compound 35a, 3-((S)-amino(6-(1-(6-(difluoromethyl)pyridin-2-yl)-1H-indazol-6-yl)pyridin-2-yl)methyl)cyclobutan-1-ol] | –
